Data from patent US20260217677A1, “ORGANIC COMPOUNDS AS NLRP3 INHIBITORS” (KODIAK SCIENCES, INC., priority 2023, published 2026).
Where two headings read alike, the source gives them in different places.

System: IL-1β release in U937 cells after NLRP3 activation
Test: IL-1β release inhibition in U937 cells (MSD V-Plex)
Conditions: PMA-differentiated U937 cells, 1 μg/mL LPS 3 h, compound 30 min, 10 mM nigericin 1 h
[1] = Homo sapiens, U-937, read-out: IL-1β IC50, Table 3
[2] = Homo sapiens, U-937, read-out: IL-1β IC50, Table 4

IC50 [1] [nM]	IC50 [2] [nM]	Compound	other results
5 to 50		Cc1c(N[C@@H]2CCCN(CC34CC(O)(C3)C4)C2)nnc(-c2ccc(C(F)(F)F)cc2O)c1C [Example 68, (R)-3-((3-((6-(2-Hydroxy-4-(trifluoromethyl)phenyl)-4,5-dimethylpyridazin-3-yl)amino)piperidin-1-yl)methyl) bicyclo[1.1.1]pentan-1-ol]	
	50 to 500	Cc1cc(N[C@@H]2CCCN(CC(=O)N3CCC(N)CC3)C2)nnc1-c1ccc(C(F)(F)F)cc1O [Example 83, (R)-1-(4-Aminopiperidin-1-yl)-2-(3-((6-(2-hydroxy-4-(trifluoromethyl)phenyl)-5-methylpyridazin-3-yl)amino)piperidin-1-yl)ethan-1-one]	
5 to 50		Cc1cc(N[C@@H]2CCCN(CC(=O)N[C@H]3C[C@@H](O)C3)C2)nnc1-c1ccc(C(F)(F)F)cc1O [Compound 14, 2-((R)-3-((6-(2-Hydroxy-4-(trifluoromethyl)phenyl)-5-methylpyridazin-3-yl)amino)piperidin-1-yl)-N-((1s,3S)-3-hydroxycyclobutyl)acetamide]	
	5 to 50	Oc1cc(C(F)(F)F)ccc1-c1nnc(N[C@@H]2CCCN(C3CNC3)C2)c2c1CCC2 [Example 80, (R)-2-(4-((1-(Azetidin-3-yl)piperidin-3-yl)amino)-6,7-dihydro-5H-cyclopenta[d]pyridazin-1-yl)-5-(trifluoromethyl)phenol]	
5 to 50		Cc1cc(N[C@@H]2CCCN(C3CCN(C4CCC(O)CC4)CC3)C2)nnc1-c1ccc(C(F)(F)F)cc1O (single isomer, unassigned) [Example 39A]	
	5 to 50	Cc1cc(N[C@@H]2CCCN(CC(F)(F)CN)C2)nnc1-c1ccc(C(F)(F)F)cc1O [Example 97, (R)-2-(6-((1-(3-Amino-2,2-difluoropropyl)piperidin-3-yl)amino)-4-methylpyridazin-3-yl)-5-(trifluoromethyl)phenol]	
	5 to 50	Cc1cc(N[C@@H]2CCCN(CC(=O)N3CCNCC3)C2)nnc1-c1ccc(C(F)(F)F)cc1O [Example 103, (R)-2-(3-((6-(2-Hydroxy-4-(trifluoromethyl)phenyl)-5-methylpyridazin-3-yl)amino)piperidin-1-yl)-1-(piperazin-1-yl)ethan-1-one]	
5 to 50		Oc1cc(C(F)(F)F)ccc1-c1nnc(N[C@@H]2CCCN(CCN3CC[C@H](O)C3)C2)c2c1COC2 [Example 35, (S)-1-(2-((R)-3-((4-(2-Hydroxy-4-(trifluoromethyl)phenyl)-5,7-dihydrofuro[3,4-d]pyridazin-1-yl)amino)piperidin-1-yl)ethyl)pyrrolidin-3-ol]	
	5 to 50	Cc1cc(N[C@@H]2CCCN(CC(=O)N3CCN[C@@H](C)C3)C2)nnc1-c1ccc(C(F)(F)F)cc1O [Example 111, 2-((R)-3-((6-(2-Hydroxy-4-(trifluoromethyl)phenyl)-5-methylpyridazin-3-yl)amino)piperidin-1-yl)-1-((S)-3-methylpiperazin-1-yl)ethan-1-one]	
		Cc1cc(N[C@@H]2CCCN(C3CCN(C4CC(O)C4)CC3)C2)nnc1-c1ccc(C(F)(F)F)cc1O (single isomer, unassigned) [Example 38B]	IC50 (read-out: IL-1β IC50, Table 3): 5 to 50 nM
< 5		Cc1cc(N[C@@H]2CCCN(CC(=O)N3CC4(CCC(O)CC4)C3)C2)nnc1-c1ccc(C(F)(F)F)cc1O [Compound 17, (R)-2-(3-((6-(2-Hydroxy-4-(trifluoromethyl)phenyl)-5-methylpyridazin-3-yl)amino)piperidin-1-yl)-1-(7-hydroxy-2-azaspiro[3.5]nonan-2-yl)ethan-1-one]	
< 5		Cc1cc(N[C@@H]2CCCN(CC(=O)N3CCC4(CC3)CC(O)C4)C2)nnc1-c1ccc(C(F)(F)F)cc1O [Compound 15, 2-[(3R)-3-({6-[2-Hydroxy-4-(trifluoromethyl)phenyl]-5-methylpyridazin-3-yl}amino)piperidin-1-yl]-1-{2-hydroxy-7-azaspiro[3.5]nonan-7-yl}ethanone]	
50 to 500		Cc1c(-c2ccc(C(F)(F)F)cc2O)nnc2c1CCCN2[C@@H]1CCCN(C2CCN([C@H]3C[C@@H](O)C3)CC2)C1 [Example 45, 2-{4-Methyl-8-[(3R)-1′-[(1s,3s)-3-hydroxycyclobutyl]-[1,4′-bipiperidin]-3-yl]-5H,6H,7H-pyrido[2,3-c]pyridazin-3-yl}-5-(trifluoromethyl)phenol]	
	5 to 50	Cc1cc(N[C@@H]2CCCN(C3CC(N)C3)C2)nnc1-c1ccc(C(F)(F)F)cc1O (stereo in doubt) [Example 91, 2-(6-(((R)-1-((1s*,3S*)-3-aminocyclobutyl)piperidin-3-yl)amino)-4-methylpyridazin-3-yl)-5-(trifluoromethyl)phenol]	
	5 to 50	Cc1cc(N[C@@H]2CCCN(C3CCN(C(=O)N4CCNCC4)CC3)C2)nnc1-c1ccc(C(F)(F)F)cc1O [Example 86, (R)-(3-((6-(2-hydroxy-4-(trifluoromethyl)phenyl)-5-methylpyridazin-3-yl)amino)-[1,4′-bipiperidin]-1′-yl) (piperazin-1-yl)methanone]	
< 5		Cc1cc(N[C@@H]2CCCN(CCC3CC(O)C3)C2)nnc1-c1ccc(C(F)(F)F)cc1O (stereo partly drawn) [Example 66, (R)-2-(6-((1-(2-(3-Hydroxycyclobutyl)ethyl)piperidin-3-yl)amino)-4-methylpyridazin-3-yl)-5-(trifluoromethyl)phenol]	
5 to 50		O=C(CN1CCC[C@@H](Nc2nnc(-c3ccc(C(F)(F)F)cc3O)c3c2COC3)C1)N1CCC2(CC1)CC(O)C2 [Compound 24, (R)-2-(3-((4-(2-Hydroxy-4-(trifluoromethyl)phenyl)-5,7-dihydrofuro[3,4-d]pyridazin-1-yl)amino)piperidin-1-yl)-1-(2-hydroxy-7-azaspiro[3.5]nonan-7-yl)ethan-1-one]	
	< 5	Cc1cc(N[C@@H]2CCCN(CC(=O)N3CCNCC3)C2)nnc1-c1ccc2sccc2c1O [Example 113, (R)-2-(3-((6-(4-hydroxybenzo[b]thiophen-5-yl)-5-methylpyridazin-3-yl)amino)piperidin-1-yl)-1-(piperazin-1-yl)ethan-1-one]	
5 to 50		Cc1cc(N[C@@H]2CCCN(CC(=O)NC34CC(O)(C3)C4)C2)nnc1-c1ccc(C(F)(F)F)cc1O [Compound 13, (R)-2-(3-((6-(2-Hydroxy-4-(trifluoromethyl)phenyl)-5-methylpyridazin-3-yl)amino)piperidin-1-yl)-N-(3-hydroxybicyclo[1.1.1]pentan-1-yl)acetamide]	
50 to 500		Cc1cc(N[C@@H]2CCCN(CC(C)(C)C(=O)N3CCC(O)CC3)C2)nnc1-c1ccc(C(F)(F)F)cc1O [Example 47, 3-[(3R)-3-({6-[2-Hydroxy-4-(trifluoromethyl)phenyl]-5-methylpyridazin-3-yl}amino)piperidin-1-yl]-1-(4-hydroxypiperidin-1-yl)-2,2-dimethylpropan-1-one]	
	5 to 50	NC1CC2(CCN(C(=O)CN3CCC[C@@H](Nc4nnc(-c5ccc(C(F)(F)F)cc5O)c5c4COC5)C3)CC2)C1 [Example 101, (R)-1-(2-Amino-7-azaspiro[3.5]nonan-7-yl)-2-(3-((4-(2-hydroxy-4-(trifluoromethyl)phenyl)-5,7-dihydrofuro[3,4-d]pyridazin-1-yl)amino)piperidin-1-yl)ethan-1-one]	
	5 to 50	Cc1cc(N[C@@H]2CCCN(C3CCNCC3)C2)nnc1-c1ccc(C(F)(F)F)cc1O [Example 85, (R)-2-(6-([1,4′-Bipiperidin]-3-ylamino)-4-methylpyridazin-3-yl)-5-(trifluoromethyl)phenol]	
